Measured values taken from PMC2804909 (Journal of medicinal chemistry, 2010).
No end group written: not given here.

T1: MNLNI (SAT C-terminal pentapeptide) (Haemophilus influenzae)
T1 chain: MNLNI


Tests used:
[1] = biological target: HiOASS-A (Haemophilus influenzae, UniProt P45040); test: biochemical
[2] = biological target: T1, MNLNI (SAT C-terminal pentapeptide); test: fluorescence titration

| Molecule | Kd [1] [mM] | Kd [2] [mM] |
| --- | --- | --- |
| MNENI [MNENI] | ~7 |  |
| HiOASS-A (protein) MAIYADNSYSIGNTPLVRLKHFGHNGNVVVKIEGRNPSYSVKCRIGANMVWQAEKDGTLTKGKEIVDATSGNTGIALAYVAAARGYKITLTMPETMSLERKRLLCGLGVNLVLTEGAKGMKGAIAKAEEIVASDPSRYVMLKQFENPANPQIHRETTGPEIWKDTDGKVDVVVAGVGTGGSITGISRAIKLDFGKQITSVAVEPVESPVISQTLAGEEVKPGPHKIQGIGAGFIPKNLDLSIIDRVETVDSDTALATARRLMAEEGILAGISSGAAVAAADRLAKLPEFADKLIVVILPSASERYLSTALFEGIEG |  | 0.044 |
